Values of other authors as cited in patent publication US20090197952A1, “Glyceride Esters for the Treatment of Diseases Associated with Reduced Neuronal Metabolism of Glucose” (priority 2006, published 2009).

Experiments:
rat = rat feeding studies
mice = conditions: direct administration
patients = conditions: infused at 8-9.3 g/Kg body weight/day to affect hyperketonemia
rats [1] = conditions: infusion
rats [2] = conditions: rat, in vivo

## CC(O)CC(=O)OCC(COC(=O)CC(C)O)OC(=O)CC(C)O (racemic) [DL-tris-(3-hydroxybutyrl)-glycerol]
rat
  acute toxicity: not acutely toxic
  chronic toxicity: did not show any indication of chronic toxicity

## CC(O)CC(=O)OCC(O)CO (racemic) [1-(DL-3-hydroxybutyryl)-glycerol]
rat
  acute toxicity: not acutely toxic
  chronic toxicity: did not show any indication of chronic toxicity

## CC(O)CC(=O)O (stereo not drawn) [3-hydroxybutyrate]
mice
  protection against neurotoxin: can protect mice against a neurotoxin

## bisacetoacetin
patients
  detrimental side effects: No detrimental side effects

## CC(=O)CC(=O)OCC(O)CO (stereo not drawn) [monoacetoacetin]
Rats [1]; elevated levels of ketone bodies achieved
  detrimental side effects: without any detrimental side effects
Rats [1]; level equivalent to 2/3 of the rat's daily caloric requirement
  rate at which it could be safely infused: at least 50 g/kg body weight/day

## CC(=O)CC(=O)OCC(COC(=O)CC(C)=O)OC(=O)CC(C)=O [triacetoacetin]
Rats [2]
  tolerated amount: 10 g/Kg body weight/day
